We go through 6 compounds from article PMC11649784, “Re-design and evaluation of diclofenac-based carborane-substituted prodrugs and their anti-cancer potential” (Scientific Reports, 2024).

Series [1] concerns MC38, HCT116, and HT29. Kind of series: Viability assays, summary over the three cancer cell lines. To be noted: 72 h; for effect on cell viability: concentrations up to 100 μM. The series is classed as cell-based. How it is done: (§1) In a preliminary test, the stability of all compounds dissolved in the cell medium (c = 100 μM, T = [drawing 47] ) for 72 h was validated by HPLC (see Supporting Information). Cell lines were incubated with the respective compounds in a concentration range of 1.56–100 μM for 72 h, and cell viability was measured using 3-(4,5-dimethylthiazol-2-yl)-2,5-diphenyltetrazolium bromide (MTT) and crystal violet (CV) assays. […] As MTT tests gave inconsistent results, possibly due to interference of the compound with mitochondrial respiration, for the further evaluation only the CV results are considered[97],[98].
(§2) After 72 h, cell viability was determined using MTT and CV tests. First, the supernatant from the wells was discarded and the cells were incubated with an MTT solution (0.5 mg mL^−1). After half an hour, the purple formazan crystals formed were dissolved in DMSO. For CV staining of the cells, the cells were fixed with 4 [drawing 157] PFA for 10 min and then stained with a 0.02 [drawing 158] CV solution for 15 min, all at room temperature (RT). The cells were then washed with tap water, air-dried and the dye was dissolved in 33 [drawing 159] acetic acid. For both viability tests, the absorbance of the developed colors was measured using an automated microplate reader at 570 nm with a reference wavelength of 670 nm. The results were expressed as a percentage of the control values of the untreated cells, which were arbitrarily set at 100 [drawing 160] . IC50 values, defined as 50 [drawing 161] inhibitory concentration, were calculated using a four-parameter logistic function and presented as mean±SD. All biological experiments were performed in triplicates. To evaluate the nature of the detected autophagy, a combined treatment with compound 3 and the autophagy inhibitors chloroquine (Chlq) and 3-methyladenine (3-MA) was carried out. […] After 72 h, cell viability was determined by CV assay.

Series [2] has as its system MC38 cells. Description: Crystal violet (CV) viability assay, MC38. The series is classed as cell-based, murine. Particulars: 72 h, mean±SD, read-out: IC50 [μM] (n = 3) MC38 CV. How it is done: as §1
(§3) The biological study was performed on a murine colon adenocarcinoma cell line (MC38), two human colorectal carcinoma cell lines (HCT116 and HT29), and a human fetal lung fibroblast cell line (MRC-5). All cell lines are commercially available and were obtained from the American Type Culture Collection (ATCC). The human cell lines were kept in HEPES-buffered RPMI-1640 medium supplemented with 10 [drawing 141] heat-inactivated FCS, 2 mM L-glutamine, 0.01 [drawing 142] sodium pyruvate, penicillin (100 units mL^−1), and, streptomycin ( [drawing 143] mL^-1). The MC38 cell line was maintained in DMEM medium additionally supplemented with 1 [drawing 144] non-essential amino acids. Cells were grown at [drawing 145] in a humidified atmosphere with 5 [drawing 146] [drawing 147] . Peritoneal exudate cells (PECs) were isolated from healthy C57BL/6 mice (males, n = 3, 3 months old, weight 22–25 g) by performing an ice-cold PBS peritoneal lavage. Mice were sacrificed by cervical dislocation. Cells were cultivated for 4 h when nonadherent population was removed by washing in PBS, and additionally cultivated overnight in HEPES-buffered RPMI-1640 medium supplemented with 5 [drawing 148] heat-inactivated FCS before treatment with experimental drugs. Animal handling and protocol for isolation of PECs were performed according to European Union rules, and the ARRIVE guidelines 2.0.
(§4) For the viability tests, MC38, HCT116, and HT29 cells were seeded in 96-well plates at a density of 2 [drawing 149] 103, 5 [drawing 150] 103, and 6 [drawing 151] 10^3 cells/well, respectively. To determine whether the drug affected the viability of healthy, non-malignant cells, MRC-5 and PECs were seeded in 96-well plates at a density of 8 [drawing 152] 103 and 2 [drawing 153] 10^5 cells/well, respectively. For the flow cytometric analyses, MC38 cells were seeded in 6-well plates at 5 [drawing 154] 10^4 cells/well. For morphological assessment of nuclei and the detection of autophagy, MC38 cells were seeded in 2-well chamber slides at 1.5 [drawing 155] 10^4 cells/well.
as §2

The subject of series [3] is HT29 cells. Description: MTT viability assay, HT29. It is filed as cell-based, human. Particulars: 72 h, mean±SD, read-out: IC50 [μM] (n = 3) HT29 MTT. How it is done:
as §1, §3, §4, §2
Background: Tetrazolium assays rely on reduction of a dye to a coloured formazan, in cell work by metabolically active cells.

The test system of series [4] is MC38 cells. Description: MTT viability assay, MC38. It is filed as cell-based, murine. To be noted: 72 h, mean±SD, read-out: IC50 [μM] (n = 3) MC38 MTT. Here is the method:
as §1, §3, §4, §2

In series [5] the test system is HCT116 cells. Description: MTT viability assay, HCT116. The series is classed as cell-based, human. Particulars: 72 h, mean±SD, read-out: IC50 [μM] (n = 3) HCT116 MTT. Here is the method:
as §1, §3, §4, §2

For series [6], the system named is HT29 cells. Description: Crystal violet (CV) viability assay, HT29. It is filed as cell-based, human. To be noted: 72 h, mean±SD, read-out: IC50 [μM] (n = 3) HT29 CV. How it is done: as §1, §3, §4, §2
Series [7] can be described thus: Hydrolysis stability of the lactam in solution. It is filed as physicochemical. Particulars: several pH-levels, acids, bases, temperatures and solvents. The source says: To estimate the functionality as a prodrug and the stability of the oxindoles, we investigated the behavior in solution at several pH-levels, with different acids, bases, temperatures and solvents (see Supporting Information). […] The alkaline hydrolysis was successful with CsOH in a degassed 1:3 water-ethanol mixture at [drawing 29] , while acidic hydrolysis happened at [drawing 30] in 40% aqueous sulfuric acid with 2% acetic acid. Upon attempted isolation however, the lactam was re-formed within minutes as observed by [drawing 31] H and ^11B{ [drawing 32] H} NMR spectroscopy (see Supporting Information). […] The reclosing to the oxindole ring might be attributed to an increased nucleophilicity of the amino nitrogen atom stemming from its association to the carborane cluster via a cluster boron atom. This is supported by density functional theory (DFT) calculations (see Supporting Information).

The test system of series [8] is HCT116 cells. Description: Crystal violet (CV) viability assay, HCT116. To be noted: 72 h, mean±SD, read-out: IC50 [μM] (n = 3) HCT116 CV. The series is classed as cell-based, human. How it is done:
as §1, §3, §4, §2

Series [9] has as its target T1, human recombinant COX-2 (Homo sapiens, UniProt P35354).
T1 construct: purchased Cayman Chemical Company, Ann Arbor, MI, USA
T1 sequence (P35354 18-604): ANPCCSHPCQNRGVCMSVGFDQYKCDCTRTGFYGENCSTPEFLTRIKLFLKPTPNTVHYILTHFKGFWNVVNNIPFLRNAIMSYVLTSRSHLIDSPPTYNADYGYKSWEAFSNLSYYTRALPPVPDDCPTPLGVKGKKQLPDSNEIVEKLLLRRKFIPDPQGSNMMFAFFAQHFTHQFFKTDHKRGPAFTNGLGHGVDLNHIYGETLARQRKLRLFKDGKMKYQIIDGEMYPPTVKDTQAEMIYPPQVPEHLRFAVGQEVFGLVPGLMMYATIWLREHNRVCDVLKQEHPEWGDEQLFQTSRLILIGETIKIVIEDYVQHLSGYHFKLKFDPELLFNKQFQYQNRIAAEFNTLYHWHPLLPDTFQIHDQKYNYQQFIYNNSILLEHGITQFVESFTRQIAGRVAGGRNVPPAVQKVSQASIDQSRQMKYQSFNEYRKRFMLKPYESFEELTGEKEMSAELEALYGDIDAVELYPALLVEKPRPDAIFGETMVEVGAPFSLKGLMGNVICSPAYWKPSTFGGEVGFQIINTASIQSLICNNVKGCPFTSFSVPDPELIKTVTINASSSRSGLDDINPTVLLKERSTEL
Description: COX Fluorescent Inhibitor Screening Assay, COX-2. It is filed as biochemical. To be noted: for COX inhibition, in words: in vitro COX assay, COX-1 and COX-2. Here is the method: The COX inhibition activity against ovine COX-1 and human recombinant COX-2 was determined using the COX Fluorescent Inhibitor Screening Assay Kit (Cayman Chemical Company, Ann Arbor, MI, USA) according to the manufacturer’s instructions as reported.

Series [10] relates to Hep-G2. To be noted: cited from earlier work.
For series [11] the following is noted: cited from earlier work.
The conditions of series [12]: buffer solutions at pH 1.2 and pH 7.4 and human serum ref 36, 43; cited from earlier work.
For series [13] the following is noted: in vivo ref 43, 44; cited from earlier work.
Series [14] relates to MCF7, MiaPaCa-2, KB, HuTu80, L132, B16F10 and Molt4 cancer cells. On the set-up: method as in doi:10.1007/s00044-012-0309-2. Particulars: cited from earlier work.

With “1-[2-(1,12-dicarba-closo-dodecaboranyl)]-1,3-dihydro-2H-indolin-2-one [p1]”, the “effect on cell viability” value in series [1] is on record as “no effect on cell viability”. Further, the IC50 in [2], in series [3], in [4], in series [5], in series [6] and in series [8] was above 100 µM in each case. In series [7], the “stability of the lactam towards hydrolysis” value is given as “extraordinarily stable towards hydrolysis”.
Consider “1-[9-(1,2-dicarba-closo-dodecaboranyl)]-1,3-dihydro-2H-indolin-2-one [o1]”, for which, in series [1], the “effect on cell viability” value is reported as “no effect on cell viability”. In addition, the half-maximal inhibitory concentration (IC50) in series [2], in [3], in [4], in series [5], in [6] and in [8] was above 100 µM in each case. Besides, the “%Inh. @ 100 μM (n = 2) COX-2” value in series [9] was 14%.
Regarding “1-[9-(1,7-dicarba-closo-dodecaboranyl)]-1,3-dihydro-2H-indolin-2-one [m1]”, the “effect on cell viability” value in series [1] was “no effect on cell viability”. Further, the concentration for half-maximal inhibition (IC50) in [2], in series [3], in series [4], in series [5], in [6] and in series [8] was above 100 µM throughout. In [9], the “%Inh. @ 100 μM (n = 2) COX-2” value was found to be 19%.
As for `O=C1Cc2ccccc2N1c1c(Cl)cccc1Cl` [CCF, 1-(2,6-dichlorophenyl)-1,3-dihydro-2H-indolin-2-one, reference compound], the IC50 (usually the midpoint of a concentration-inhibition curve) is around 74 µM in [1] (CV); 24.5 ± 1.11 µM in [10]; 75.1 ± 3.8 µM in series [2] (Mus musculus, MC-38); 77.7 ± 5.5 µM in series [3] (Homo sapiens, HT-29); 32.6 ± 2.7 µM in series [4] (Mus musculus, MC-38); 46.7 ± 2.4 µM in series [5] (Homo sapiens, HCT-116). The IC50 in [6] (Homo sapiens, HT-29) is 74.4 ± 4.8 µM; in [8] (Homo sapiens, HCT-116) it was 73.5 ± 3.9 µM. The “COX inhibition, in words” value in series [9] is “no inhibition at all”. Also, in series [9] (read-out: %Inh. @ 100 μM (n = 2) COX-2), the inhibition at 100 µM worked out at 5%. Further, the gastrotoxicity result in series [11] is on record as “without causing gastrotoxicity”. For the same compound, the stability towards hydrolysis result in [12] is recorded as “High stability towards hydrolysis”. In addition, the “in vivo conversion to open-chain diclofenac” value in series [13] is given as “hydrolysis of the lactam to form the open-chain diclofenac”. Besides, the “effect in initial in vitro tests on cancer cells” value in [14] is “no effect”.
As to `O=C(O)Cc1ccccc1Nc1c(Cl)cccc1Cl` [DCF, diclofenac], the “effect on cell viability” value in series [1] is “no effect on cell viability”. Moreover, the IC50 in series [2] (Mus musculus, MC-38) was above 100 µM; in [3] (Homo sapiens, HT-29), above 100 µM; in series [4] (Mus musculus, MC-38), above 100 µM; in [5] (Homo sapiens, HCT-116), above 100 µM; in series [6] (Homo sapiens, HT-29), above 100 µM; in series [8] (Homo sapiens, HCT-116), above 100 µM.
In the case of “Sodium 1-[2-(7,8-dicarba-nido-undecaborate)]-1,3-dihydro-2H-indolin-2-one [compound 2]”, in [1], the “effect on cell viability” value is on record as “no effect on cell viability”. The concentration for half-maximal inhibition (IC50) in series [2] is above 100 µM; in [9] (absolute IC50, 0.1 to 100 μM in duplicate, 95% CI in brackets), 58.5 µM; in [3] it was above 100 µM; in series [4], above 100 µM; in series [5], above 100 µM; in series [6], above 100 µM. The 50% inhibitory concentration (IC50) in series [8] is above 100 µM. In series [9], the “%Inh. @ 100 μM (n = 2) COX-2” value is 56%. Further, the “COX inhibition, in words” value in [9] is “moderately active COX-inhibitors”.
